Experimental data from patent US10875872B2, “Heteroaryl amide compounds as sting activators” (Incyte Corporation, priority 2018, dated 2020).

test system: IRF3; test: IRF3 activation assay in THP-1 Dual cells (QUANTI-Blue reporter); type: cell-based; conditions: Homo sapiens, THP1-Dual, 24 hours incubation, culture supernatant, absorbance at 620-655 nm
Protocol: THP-1 Dual Cells (Invivogen) were maintained in RPMI1640 medium with addition of 10% FBS, 100 μg/mL zeocin, 10 μg/mL blasticidin. Cells were added in a 96-well flat bottom assay plate at 100,000 per well in 100 μL complete RPMI medium. Test compounds were prepared by serial dilution in complete RPMI medium and 100 μL test compounds were transferred to each corresponding well. The assay plate was incubated at 37° C., 5% CO2 for 24 hours. After the overnight incubation, 20 μL of the culture supernatants were collected, followed by addition of 180 μL of QUANTI-Blue (Invivogen) to assess IRF3 activity. The amount of IRF3 activation was assessed by reading the absorbance at 620-655 nm with a microplate reader 2 hours later. The culture supernatant from the untreated THP-1 cells was used as the negative control. To determine the NF-κB activation, another 20 μL of culture supernatant were transferred to a 96-well white plate, followed by addition of 50 μL of Quanti-Lucim assay solution (Invivogen). The amount of NF-κB activation induced by the test compounds were determined by the luminescence above the untreated control. EC50 determination was performed by fitting the curve of percent control activity versus the log of the compound concentration using the GraphPad Prism 6.0 software.

`CCn1nc(C)cc1C(=O)Nc1nc2cc(C(N)=O)cc(OCCCOC(=O)NCCC(=O)O)c2n1C/C=C/Cn1c(NC(=O)c2cc(C)nn2CC)nc2cc(C(N)=O)c3ccoc3c21` [Example 3, (E)-3-(((3-((5-carbamoyl-1-(4-(5-carbamoyl-2-(1-ethyl-3-methyl-1H-pyrazole-5-carboxamido)-1H-benzofuro[6,7-d]imidazol-1-yl)but-2-en-1-yl)-2-(1-ethyl-3-methyl-1H-pyrazole-5-carboxamido)-1H-benzo[d]imidazol-7-yl)oxy)propoxy)carbonyl)amino)propanoic acid] and `CCn1nc(C)cc1C(=O)Nc1nc2cc(C(N)=O)cc(C)c2n1C/C=C/Cn1c(NC(=O)c2cc(C)nn2CC)nc2cc(C(N)=O)c3ccoc3c21` [Example 2, (E)-1-(4-(5-carbamoyl-2-(1-ethyl-3-methyl-1H-pyrazole-5-carboxamido)-7-methyl-1H-benzo[d]imidazol-1-yl)but-2-en-1-yl)-2-(1-ethyl-3-methyl-1H-pyrazole-5-carboxamido)-1H-benzofuro[6,7-d]imidazole-5-carboxamide] cannot be ordered by EC50: less than 100 nM for the first, less than 100 nM for the second.

Molecule `CCn1nc(C)cc1C(=O)Nc1nc2cc(C(N)=O)cc(C)c2n1C/C=C/Cn1c(NC(=O)c2cc(C)nn2CC)nc2cc(C(N)=O)c3c(c21)OCCO3` [Example 1, (E)-1-(4-(5-carbamoyl-2-(1-ethyl-3-methyl-1H-pyrazole-5-carboxamido)-7-methyl-1H-benzo[d]imidazol-1-yl)but-2-en-1-yl)-2-(1-ethyl-3-methyl-1H-pyrazole-5-carboxamido)-7,8-dihydro-1H-[1,4]dioxino[2′,3′:3,4]benzo[1,2-d]imidazole-5-carboxamide] has an EC50 of 500 to 1000 nM.
